From US20140172118A1, “Bioactive Compositions, Bioactive Eluting Devices and Methods of Use Thereof” (Cook Medical Technologies LLC, priority 2012, published 2014)

Assay: Ex-vivo delivery of doxazosin mesylate from coated polyurethane tubing to ureter tissue
Format: in vitro ADME
Details: 7 cm coated 6 Fr. polyurethane tubing in 9 cm porcine ureter, approximately 18 hours at 37° C., PBS pH=7.4; HPLC; compared with coating with no triacetin or DMSO; FIG. 6
Description: However, the increase in the amount bioactive delivered through a vessel wall may be characterized in an ex vivo assay in which the composition or implantable device is placed in a section of the appropriate vessel and incubated in a buffer solution for a fixed time. In one such assay, a device, for example, is placed in a section of porcine ureter, which is hydrated in a Phosphate Buffered Saline buffer. The ureter is incubated in a closed container for a fixed time, for example 24 hrs at 37 deg. C. […] The amount of bioactive present in the ureter and in the device is determined using, for example, an appropriate HPLC method. […]
A 7 cm section of each of the samples of tubing prepared as described in Example 1 is inserted into 9 cm of porcine ureter and incubated for approximately 18 hours at 37° C. in a screw capped glass vial hydrated with 0.25 ml of PBS (pH=7.4). […] The amount of doxazosin mesylate present in the tubing and in the ureter is determined as described in example 3.
Each of the samples from Example 2 is tested to determine the amount of doxazosin mesylate delivered to the ureter tissue. Doxazosin mesylate is extracted from each tube and ureter and the percentage that is delivered to each ureter is determined as follows. […] The amount of doxazosin mesylate in each of the ureter and the tubing is measured using HPLC.

Row | SMILES | percentage of doxazosin mesylate present in the ureter (amount delivered to ureter tissue)
1 | C[S+](C)[O-] [DMSO, dimethyl sulfoxide] | increase the amount of doxazosin mesylate delivered
2 | CC(=O)OCC(COC(C)=O)OC(C)=O [triacetin] | increase the amount of doxazosin mesylate delivered
